Common to all, as to assay type: functional
For one assay, the system named is Citrobacter werkmanii. The assay is described as follows: Antimicrobial activity against Citrobacter werkmanii PS012 expressing PMQR determinant qnrB22 gene by Etest.
The next assay deals with Citrobacter freundii. The assay can be described thus: Antimicrobial activity against Citrobacter freundii S008 expressing PMQR determinant qnrB23 gene by Etest.
The test system of assay [1] is Escherichia coli. The assay can be described thus: Antimicrobial activity against azide-resistant Escherichia coli J53 TrcS008 harboring PMQR determinant qnrB23 by Etest.
In assay [2] the test system is Escherichia coli. The assay is described as follows: Antimicrobial activity against azide-resistant Escherichia coli J53 by Etest.
Assay [3] deals with Escherichia coli. The assay is described as follows: Antimicrobial activity against […] Escherichia coli DH5alpha TrfPS012 harboring PMQR determinant qnrB22 by Etest.
For assay [4], the system named is Escherichia coli. The assay is described as follows: Antimicrobial activity against […] Escherichia coli DH5alpha TrfS008 harboring PMQR determinant qnrB23 by Etest.
In assay [5] the test system is Escherichia coli. The assay is described as follows: Antimicrobial activity against […] Escherichia coli DH5alpha by Etest.
The test system of assay [6] is Escherichia coli. The assay can be described thus: Antimicrobial activity against azide-resistant Escherichia coli J53 TrcPS012 harboring PMQR determinant qnrB22 by Etest.

Structures are written as SMILES. Values after ≈ are worked out from the molar mass of the structure shown.

Regarding `CC1COc2c(N3CCN(C)CC3)c(F)cc3c(=O)c(C(=O)O)cn1c23` (stereo not drawn) [OFLOXACIN], the MIC was determined as 1 µg/mL (≈ 2.77 µM) in the assay on Citrobacter werkmanii; 8 µg/mL (≈ 22.1 µM) in the assay with Citrobacter freundii; 8 µg/mL (≈ 22.1 µM) in the assay with Escherichia coli [1]; 0.064 µg/mL (≈ 0.177 µM) against Escherichia coli [2]; 0.064 µg/mL (≈ 0.177 µM) against Escherichia coli [3]; 0.25 µg/mL (≈ 0.692 µM) in the assay with Escherichia coli [4]. 0.023 µg/mL (≈ 0.0636 µM) was the least that counted as inhibitory in the assay with Escherichia coli [5] (MIC).

`CCn1cc(C(=O)O)c(=O)c2ccc(C)nc21` [NALIDIXIC ACID]: the MIC with Citrobacter werkmanii is 32 µg/mL (≈ 138 µM); with Citrobacter freundii, above 256 µg/mL; against Escherichia coli [6] it was 16 µg/mL (≈ 68.9 µM); in the assay on Escherichia coli [1], above 256 µg/mL; against Escherichia coli [2], 3 µg/mL (≈ 12.9 µM); in the assay with Escherichia coli [3], 4 µg/mL (≈ 17.2 µM). The MIC against Escherichia coli [4] was 16 µg/mL (≈ 68.9 µM); in the assay on Escherichia coli [5], 2 µg/mL (≈ 8.61 µM).

On to `CCn1cc(C(=O)O)c(=O)c2cc(F)c(N3CCNCC3)cc21` [NORFLOXACIN], for which the MIC against Citrobacter werkmanii came to 0.5 µg/mL (≈ 1.57 µM); against Citrobacter freundii, 8 µg/mL (≈ 25.1 µM); against Escherichia coli [6] it was 0.25 µg/mL (≈ 0.783 µM); against Escherichia coli [1], 8 µg/mL (≈ 25.1 µM); in the assay with Escherichia coli [2], 0.064 µg/mL (≈ 0.2 µM); with Escherichia coli [3] it was 0.064 µg/mL (≈ 0.2 µM). In addition, the MIC was 0.25 µg/mL (≈ 0.783 µM) in the assay on Escherichia coli [4] and 0.032 µg/mL (≈ 0.1 µM) against Escherichia coli [5].

For the compound `C[C@H]1COc2c(N3CCN(C)CC3)c(F)cc3c(=O)c(C(=O)O)cn1c23.C[C@H]1COc2c(N3CCN(C)CC3)c(F)cc3c(=O)c(C(=O)O)cn1c23.O` [LEVOFLOXACIN], the MIC with Citrobacter werkmanii came to 0.5 µg/mL; against Citrobacter freundii, 3 µg/mL; against Escherichia coli [1], 3 µg/mL; with Escherichia coli [2] it was 0.023 µg/mL; against Escherichia coli [3] it was 0.004 µg/mL; in the assay on Escherichia coli [4], 0.094 µg/mL. Also, the MIC against Escherichia coli [5] is below 0.002 µg/mL.

For `O=C(O)c1cn(C2CC2)c2cc(N3CCNCC3)c(F)cc2c1=O` [CIPROFLOXACIN], the MIC against Citrobacter werkmanii was determined as 0.25 µg/mL (≈ 0.754 µM); in the assay on Citrobacter freundii, 2 µg/mL (≈ 6.04 µM); in the assay on Escherichia coli [4], 0.064 µg/mL (≈ 0.193 µM).

These data come from ChEMBL document CHEMBL1275241, “Novel variants of the qnrB gene, qnrB22 and qnrB23, in Citrobacter werkmanii and Citrobacter freundii” (2010).
